In PubChem BioAssay AID602275 (The Scripps Research Institute Molecular Screening Center, 2012):
Values joined by “and” are separate entries in the source; they are usually repeats but may differ in a detail not shown here. Equal values may be shown once. Active and inactive are the calls of the source. No rule for the calls is given here.

Assays:
NS3h 2a[JFH1] = assay: NS3h unwinding inhibitors, genotype 1b and 2a – biochemical, real-time fluorescence, strains con1 and JFH1, set 3, selectivity assay for HCV NS3 helicase inhibitor project, late-stage follow-up (AID 602275); settings: Recombinant NS3h
NS3h 1b[con1] = assay: as above; settings: Recombinant NS3h

SMILES | IC50 (NS3h 2a[JFH1]) | IC50 (NS3h 1b[con1]) | outcome (NS3h 1b[con1]) | outcome (NS3h 2a[JFH1])
Cc1ccc2nc(-c3ccc4nc(-c5ccc(NS(=O)(=O)c6ccc(C(F)(F)F)cc6)cc5)sc4c3)sc2c1S(=O)(=O)O | 35 µM | 32 µM |  | 
Cc1ccc2nc(-c3ccc4nc(-c5ccc(NC(=O)Nc6ccccc6)cc5)sc4c3)sc2c1S(=O)(=O)O | 6 µM | 4.1 µM |  | 
CCOc1ccc2nc(NC(=O)c3ccc4ncsc4c3)sc2c1 | inactive |  | inactive | 
Cc1ccc2nc(-c3ccc(NC(=S)Nc4ccccc4Br)cc3)sc2c1 | inactive |  | inactive | 
Cc1ccc2nc(-c3ccc(NC(=O)c4ccc(NS(=O)(=O)c5ccccc5)cc4)cc3)sc2c1S(=O)(=O)O |  |  | inactive | inactive
Cc1ccc2nc(-c3ccc4nc(-c5ccc(NC(=O)c6ccc(NC(=O)OCC7c8ccccc8-c8ccccc87)cc6)cc5)sc4c3)sc2c1S(=O)(=O)O | 5.8 µM | 5.4 µM |  | 
CS(=O)(=O)c1ccc2nc(NC(=O)c3ccc4ncsc4c3)sc2c1 | 21.3 µM | 26.8 µM |  | 
Cc1ccc2nc(-c3ccc4nc(-c5ccc(NC(=O)c6cc(C(F)(F)F)ccc6F)cc5)sc4c3)sc2c1S(=O)(=O)O | 6.7 µM | 6.4 µM |  | 
Cc1ccc2nc(-c3ccc4nc(-c5ccc6nc(-c7ccc8nc(-c9ccc(N)cc9)sc8c7)sc6c5)sc4c3)sc2c1S(=O)(=O)O | 0.5 µM and 1.2 µM | 0.8 µM and 2.2 µM |  | 
Cc1ccc2nc(-c3ccc(NC(=O)c4ccc(NC(=O)c5ccc(C(F)(F)F)cc5)cc4)cc3)sc2c1S(=O)(=O)O | 14.7 µM | 10.4 µM |  | 
